The values that follow come from ChEMBL document CHEMBL1201862, “PubChem BioAssay data set” (2004).

Test systems include COLO 205; HL-60; SK-MEL-2; HCC 2998; MDA-MB-231; SK-MEL-5; 786-0; EKVX; LOX IMVI; OVCAR-4; SF-268; NCI-H460; SW-620; SF-295; HOP-92; SN12C; UACC-257; OVCAR-3; NCI-H522; RPMI-8226.
Assay in all cases: NCI tumour cell line growth inhibition, 48 h

Structures are written as SMILES.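 Cultured in 96-well plates, cells were exposed to test compound for 48 hours across five concentrations. Abbreviation: GI50, concentration required for 50% inhibition of growth.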 Active and inactive are the calls of the source. No stated cut-off is given here; in the data, active = GI50 up to about 1.1 µM and inactive = higher. Bounds are passed on as bounds.

For the compound `O=S1(=O)CCN(Cc2ccccc2)/C1=N\S(=O)(=O)c1ccc(Cl)cc1`, the GI50 in the experiment on COLO 205 was 19.4 µM (inactive); in the experiment on HL-60, 22.8 µM (inactive); in the experiment on SK-MEL-2, 23.4 µM (inactive); in the experiment with HCC 2998, 19.3 µM (inactive); in the experiment with MDA-MB-231 it was > 100 µM (inactive); in the experiment with SK-MEL-5 it was 21.2 µM (inactive). Moreover, the GI50 with 786-0 was 19.7 µM (inactive); with EKVX it was 15.1 µM (inactive); in the experiment with LOX IMVI, 18.1 µM (inactive); in the experiment on OVCAR-4 it was 18.8 µM (inactive); in the experiment on SF-268, 16.6 µM (inactive); in the experiment on NCI-H460, 22.3 µM (inactive). Also, the GI50 is 19.1 µM (inactive) in the experiment with SW-620; 48.2 µM (inactive) in the experiment with SF-295; 18.6 µM (inactive) with HOP-92; 19.2 µM (inactive) in the experiment on SN12C; 20.7 µM (inactive) in the experiment with UACC-257; 19.4 µM (inactive) with OVCAR-3. Further, the figures for the GI50 in the experiment on NCI-H522 and in the experiment with RPMI-8226 were 14.5 µM (inactive) and 25.8 µM (inactive), respectively.

For `O=C(O)CN1CCN(CC(=O)O)CCN(CC(=O)O)CCN(CC(=O)O)CC1` [TETRAXETAN], the GI50 with COLO 205, with HL-60, in the experiment with SK-MEL-2, in the experiment with HCC 2998, in the experiment on MDA-MB-231 and in the experiment with SK-MEL-5 was > 100 µM (inactive) throughout. Also, the GI50 with 786-0, with EKVX, with LOX IMVI, with OVCAR-4, in the experiment on SF-268 and with NCI-H460 was > 100 µM (inactive) each time. The GI50 in the experiment with SW-620, with SF-295, in the experiment with HOP-92, in the experiment on SN12C, in the experiment with UACC-257 and with OVCAR-3 was > 100 µM (inactive) each time. Also, the GI50 with NCI-H522 and with RPMI-8226 was > 100 µM (inactive) each time.

`CCCCCc1c2nc(c(CCCCC)c3ccc([nH]3)c(CCCCC)c3nc(c(CCCCC)c4ccc1[nH]4)C=C3)C=C2`: the GI50 in the experiment on COLO 205, in the experiment with HL-60, in the experiment with SK-MEL-2, in the experiment on HCC 2998, in the experiment on MDA-MB-231 and with SK-MEL-5 was > 100 µM (inactive) throughout. For the same compound, the GI50 in the experiment on 786-0, in the experiment on EKVX, in the experiment on LOX IMVI, in the experiment with OVCAR-4, in the experiment on SF-268 and in the experiment with NCI-H460 was > 100 µM (inactive) throughout. Also, the GI50 in the experiment on SW-620, in the experiment on SF-295, in the experiment on HOP-92, in the experiment on SN12C, with UACC-257 and with OVCAR-3 was > 100 µM (inactive) throughout. In addition, the GI50 in the experiment with NCI-H522 and in the experiment on RPMI-8226 was > 100 µM (inactive) throughout.

Regarding `CCOC(=O)CCC(NC(=O)c1ccc(OCc2nc3cc(C(F)(F)F)ccc3nc2-c2ccccc2)cc1)C(=O)OCC` (stereo not given), the GI50 in the experiment with COLO 205 was 17.9 µM (inactive); in the experiment with HL-60, > 100 µM (inactive); in the experiment with SK-MEL-2, 22 µM (inactive); in the experiment on HCC 2998, > 10 µM (inactive); with MDA-MB-231, > 100 µM (inactive); in the experiment on SK-MEL-5, 31.6 µM (inactive). The GI50 in the experiment with 786-0 is > 100 µM (inactive); in the experiment with EKVX, > 100 µM (inactive); with LOX IMVI, > 100 µM (inactive); with OVCAR-4, 13.7 µM (inactive); in the experiment on SF-268, 37.3 µM (inactive); in the experiment with NCI-H460, 52.1 µM (inactive). Also, the GI50 with SW-620 was > 100 µM (inactive); in the experiment on SF-295 it was 40.6 µM (inactive); with HOP-92 it was 79.6 µM (inactive); with SN12C, > 100 µM (inactive); with UACC-257, 67.3 µM (inactive); with OVCAR-3, 79.1 µM (inactive). In addition, the GI50 in the experiment with NCI-H522 is > 100 µM (inactive); with RPMI-8226 it was 43.9 µM (inactive).

For `CCCN1C(=O)CN(S(=O)(=O)c2ccc(Cl)cc2)C1=O`, the GI50 in the experiment on COLO 205, in the experiment with HL-60, in the experiment on SK-MEL-2, with HCC 2998, in the experiment with MDA-MB-231 and in the experiment on SK-MEL-5 was > 100 µM (inactive) throughout. Moreover, the GI50 in the experiment with 786-0, in the experiment with EKVX, in the experiment on LOX IMVI, in the experiment on OVCAR-4, in the experiment with SF-268 and with NCI-H460 was > 100 µM (inactive) each time. Besides, the GI50 with SW-620, in the experiment on SF-295, in the experiment with HOP-92, in the experiment with SN12C, with UACC-257 and in the experiment on OVCAR-3 was > 100 µM (inactive) throughout. For the same compound, the GI50 in the experiment on NCI-H522 and in the experiment with RPMI-8226 was > 100 µM (inactive) each time.

Regarding `N=C(N)NS(=O)(=O)c1ccc(NC(=O)c2cccc3c(NNc4ccc(C(=O)O)cc4)c4ccccc4nc23)cc1`, the GI50 with COLO 205 is 65 µM (inactive); in the experiment on HL-60, 32.6 µM (inactive); in the experiment with SK-MEL-2, 22.9 µM (inactive); with HCC 2998, 52.2 µM (inactive); in the experiment on MDA-MB-231, 61 µM (inactive); in the experiment on SK-MEL-5 it was 99.1 µM (inactive). For the same compound, the GI50 with 786-0 is > 100 µM (inactive); with EKVX it was 26.6 µM (inactive); in the experiment with LOX IMVI, 48.4 µM (inactive); with OVCAR-4, > 100 µM (inactive); with SF-268, 58.7 µM (inactive); in the experiment on NCI-H460 it was 67.3 µM (inactive). Besides, the GI50 in the experiment on SW-620 is > 100 µM (inactive); with SF-295, > 100 µM (inactive); in the experiment on HOP-92, 24.2 µM (inactive); in the experiment with SN12C, > 100 µM (inactive); in the experiment on UACC-257, > 100 µM (inactive); in the experiment on OVCAR-3, 46.7 µM (inactive). Also, the values for the GI50 in the experiment with NCI-H522 and with RPMI-8226 were 51.1 µM (inactive) and > 100 µM (inactive), respectively.

As for `SCc1ccc(-c2ccc(CS)cc2)cc1`, the GI50 with COLO 205 was 18 µM (inactive); in the experiment with HL-60, 3.25 µM (inactive); in the experiment with SK-MEL-2, 19.7 µM (inactive); with HCC 2998, 15.6 µM (inactive); in the experiment on MDA-MB-231, 11.2 µM (inactive); in the experiment on SK-MEL-5, 15.6 µM (inactive). The GI50 is 23.2 µM (inactive) with 786-0; 26 µM (inactive) with EKVX; 4 µM (inactive) with LOX IMVI; 6.38 µM (inactive) in the experiment with OVCAR-4; 3.33 µM (inactive) in the experiment with SF-268; 10.4 µM (inactive) with NCI-H460. For the same compound, the GI50 in the experiment on SW-620 was 22.2 µM (inactive); in the experiment with SF-295, 8.97 µM (inactive); with HOP-92, 17.9 µM (inactive); with SN12C, 26.3 µM (inactive); with UACC-257, 21.1 µM (inactive); in the experiment on OVCAR-3, 16.4 µM (inactive). Moreover, the GI50 is 17.8 µM (inactive) with NCI-H522 and 8.77 µM (inactive) in the experiment on RPMI-8226.

`COC(=O)c1oc([N+](=O)[O-])c(Cl)c1Cl`: the GI50 was 4.12 µM (inactive) in the experiment with COLO 205; 1.34 µM (inactive) in the experiment with HL-60; 12.2 µM (inactive) with SK-MEL-2; 20 µM (inactive) in the experiment on HCC 2998; 7.35 µM (inactive) in the experiment with MDA-MB-231; 9.08 µM (inactive) in the experiment on SK-MEL-5. Also, the GI50 with 786-0 is 4.14 µM (inactive); in the experiment on EKVX, 19.8 µM (inactive); in the experiment on LOX IMVI, 6.05 µM (inactive); with OVCAR-4, 9.31 µM (inactive); with SF-268, 8.28 µM (inactive); in the experiment with NCI-H460, 17.2 µM (inactive). The GI50 in the experiment with SW-620 is 4.07 µM (inactive); in the experiment on SF-295 it was 11.8 µM (inactive); in the experiment with HOP-92 it was 20 µM (inactive); with SN12C, 7.53 µM (inactive); in the experiment with UACC-257, 7.89 µM (inactive); in the experiment with OVCAR-3, 6.1 µM (inactive). The GI50 in the experiment with NCI-H522 was 1.7 µM (inactive); in the experiment on RPMI-8226 it was 3.96 µM (inactive).

As to `O=C1c2sccc2C(=O)c2c(CO)csc21`, the GI50 is 2.69 µM (inactive) in the experiment with COLO 205; 1.29 µM (inactive) in the experiment with HL-60; 2.85 µM (inactive) in the experiment with SK-MEL-2; 3.44 µM (inactive) with HCC 2998; 17.2 µM (inactive) in the experiment on MDA-MB-231; 0.83 µM (active) in the experiment on SK-MEL-5. The GI50 in the experiment with 786-0 is 3.94 µM (inactive); with EKVX, 6.97 µM (inactive); in the experiment with LOX IMVI it was 2.88 µM (inactive); in the experiment on OVCAR-4, 2.16 µM (inactive); in the experiment with SF-268, 6.5 µM (inactive); in the experiment on NCI-H460 it was 2.25 µM (inactive). Further, the GI50 with SW-620 was 6.98 µM (inactive); in the experiment on SF-295 it was 2.69 µM (inactive); in the experiment on HOP-92, 7.5 µM (inactive); with SN12C, 6.46 µM (inactive); with UACC-257, 2.15 µM (inactive); with OVCAR-3 it was 1.9 µM (inactive). Also, the GI50 in the experiment with NCI-H522 is 1.92 µM (inactive); with RPMI-8226, 5.26 µM (inactive).

On to `COc1cc(C2SCC(=O)N2Cc2ccccc2)cc(OC)c1OC` (stereo not given), for which the GI50 with COLO 205, in the experiment with HL-60, in the experiment with SK-MEL-2, with HCC 2998, in the experiment on MDA-MB-231 and in the experiment with SK-MEL-5 was > 100 µM (inactive) in each case. For the same compound, the GI50 in the experiment on 786-0, in the experiment with EKVX, in the experiment with LOX IMVI, in the experiment on OVCAR-4, in the experiment with SF-268 and in the experiment with NCI-H460 was > 100 µM (inactive) throughout. Further, the GI50 was > 100 µM (inactive) in the experiment with SW-620; > 100 µM (inactive) with SF-295; 13.2 µM (inactive) in the experiment on HOP-92; > 100 µM (inactive) in the experiment with SN12C; > 100 µM (inactive) in the experiment on UACC-257; > 100 µM (inactive) in the experiment on OVCAR-3. The GI50 in the experiment with NCI-H522 was 90.4 µM (inactive); in the experiment on RPMI-8226, > 100 µM (inactive).
